Experiments:
[1] = Electrochemistry: cyclic voltammetry of the Mn(III)/Mn(II) redox couple; type: physicochemical
Method: Electrochemistry. Measurements were performed on a CH Instruments Model 600 Voltammetric Analyzer (Spasojevic and Batinic-Haberle, Inorg. Chim. Acta. 317:230-242 (2001), Batinic-Haberle et al, J. Biol. Chem. 273:24521-24528 (1998), Batinic-Haberle et al, Inorg. Chem. 38:4011-4022 (1999)). A three-electrode system in a small volume cell (0.5 mL to 3 mL), with a 3 mm-diameter glassy carbon button working electrode (Bioanalytical Systems), plus the Ag/AgCl reference and Pt auxiliary electrodes was used. Argon-purged solutions contained 0.05 M phosphate buffer, pH 7.8, 0.1 M NaCl, and 0.5 mM metalloporphyrin. The scan rates were 0.01-0.5 V/s, typically 0.1 V/s. The potentials were standardized against the potassium ferrocyanide/ferricyanide (Kolthof and Tomsicek, J. Phys. Chem. 39:945 (1935)) and/or against MnTE-2-PyP^5+ (Spasojevic and Batinic-Haberle, Inorg. Chim. Acta. 317:230-242 (2001), Batinic-Haberle et al, J. Biol. Chem. 273:24521-24528 (1998), Batinic-Haberle et al, Inorg. Chem. 38:4011-4022 (1999)).
Electrochemistry. All cyclic voltammograms, ascribed to the Mn(III)/Mn(II) redox couple, are reversible. The E1/2 of di-ortho ethylimidazolylporphyrin, MnTDE-2-ImP^5+ is 118 mV more positive than of ortho ethylpyridylporphyrin, MnTE-2-PyP^5+ (+228 mV vs NHE), as a consequence of charge delocalization. A similar difference of 114 mV was seen between their methoxyethyl analogues. Mn porphyrins bearing N-pyridyl substituents of the same length, MnTnBu-PyP^5+ and MnTMOE-2-PyP^5+, have nearly identical E1/2 of +254 and +251 mV vs NHE, which is 26 and 23 mV higher than that of MnTE-PyP^5+.

[2] = Catalysis of O2.^− dismutation by pulse radiolysis; type: biochemical; conditions: pulse radiolysis, pH 7.8, (22 ± 1) °C; kcat ±30%
Method: Catalysis of O2.^− dismutation. The catalytic rate constants for the O2.^− dismutation were determined by pulse radiolysis in 0.05 M phosphate buffer (pH 7.8) at (22±1)° C. as previously described (Batinic-Haberle et al, Inorg. Chem. 40:726 (2001)). In the present study 10 mM formate was used as a scavenger for H. atoms and .OH radicals, which leads first to production of CO2.^− radicals and then to O2.^− radicals. This system is known to lead to conversion of all primary radicals of water radiolysis into O2.^−.
Catalysis of O2.^− dismutation. Pulse radiolysis was used to assess the SOD-like activities of the Mn porphyrins studied. The initial concentration of O2.^− produced by the pulse was about 27 μM, and the concentration of the Mn porphyrin was between 0.5 and 5 μM. The dismutation of O2.^− was followed at 280 nm. The catalytic rate constant was determined from the linear dependence of kobs upon the concentration of the catalyst (Batinic-Haberle et al, Inorg. Chem. 40:726 (2001)). All the new compounds have high O2.^− dismuting ability. The magnitude of the catalysis is due to the interplay of the electron-withdrawing effects of quaternized ortho pyridyl or di-ortho imidazolyl groups, favorable electrostatics, and the solvation of the metal site.

[3] = Thin-layer chromatography on silica gel (retention factor Rf, lipophilicity); type: physicochemical; conditions: silica gel TLC, KNO3-saturated H2O/H2O/acetonitrile = 1/1/8
Method: Uv/vis spectra of porphyrin ligands and their Mn complexes were taken on a Shimadzu UV-2501-PC spectrophotometer at 25° C. Thin-layer chromatography of ligands and Mn complexes was done using silica gel plates with KNO3satH2O/H2O/acetonitrile=1/1/8.
Thin-layer chromatography. All new methoxyporphyrins are more lipophilic than MnTE-2-PyP^5+ and MnTDE-2-ImP^5+.

[4] = Oxidative degradation in the presence of ascorbic acid under aerobic conditions; type: physicochemical; conditions: pH 7.8 (0.05 M tris buffer)
Method: Under these conditions porphyrins underwent oxidative degradation. As previously observed (Batinic-Haberle et al, J. Chem. Soc., Dalton Trans., pgs. 2689-2696 (2002)), those porphyrins that are of more positive E1/2 are stabilized in +2 oxidation state and are less prone to oxidative damage. Accordingly, 27% and 24% of MnTE-2-PyP^5+ and MnTMOE-2-PyP^5+ undergo degradation within 2 hours, but only 2% of MnTM,MOE-2-ImP^5+ and MnTDMOE-2-ImP^5+ and 3% of MnTDE-2-ImP^5+.

[5] = system: SOD-deficient JI132 E. coli; assay: Aerobic growth of SOD-deficient E. coli; type: cell-based
Method: Aerobic growth of E. coli. Bacterial strains of E. coli used were wild type AB1157 (F-thr-1 leu-1 proA2 his-4 argE3 thr-1 lacY1 galK2 rpsL supE44 ara-14 xyl-15 mtl-1 tsx-33) and SOD-deficient JI132 (same as AB1157 plus (sodA::mudPR13)25 (sodB-kan)1-Δ2. Culture media were prepared as follows. M9 medium: 6 g/L Na2HPO4, 3 g/L KH2PO4, 0.5 g/L NaCl, 1 g/L NH4Cl, 2 mM MgSO4, 0.1 mM CaCl2, adjusted to pH 7.4 with NaOH, and supplemented with 0.2% glucose, 3 mg/L each of D-panthotenic acid and thiamine. M9CA medium contained M9 medium plus 0.2% casamino acids. 5-amino acid (5AA) minimal medium contained M9 medium plus 0.5 mM each of threonine, leucine, histidine, proline and arginine (Faulkner et al, J. Biocl. Chem. 269:23471 (1994)).
AB 1157 and 31132 were precultured overnight aerobically in M9CA medium at 37° C. and were then diluted to 3×10^7 cells/mL into 5 mL M9CA medium. JI132 was precultured in the presence of 20 μg/mL chloramphenicol and 500 μg/mL kanamycin. When the cells are transferred from M9CA medium to 5AA minimal medium cultures were first centrifuged and washed twice with the 5AA medium before final dilution in it. The centrifugation was conducted at room temperature to avoid temperature shocks. Cultures without and with Mn porphyrins (0.1 to 30 μM) were grown aerobically in 5 mL volume in test tubes in a thermostated orbital shaker (45° angle, 200 rpm) at 37° C.). Rates of growth were followed turbidimetrically at 700 nm to minimize interference from the absorbance of test compounds.

[6] = stroke model; cited from earlier work
[7] = given intravenously; cited from earlier work

## CCn1cc[n+](CC)c1-c1c2nc(c(-c3n(CC)cc[n+]3CC)c3ccc([n-]3)c(-c3n(CC)cc[n+]3CC)c3nc(c(-c4n(CC)cc[n+]4CC)c4ccc1[n-]4)C=C3)C=C2.[Mn+3] [MnTDE-2-ImP^5+, Mn(III) 5,10,15,20-tetrakis[N,N′-diethylimidazolium-2-yl]porphyrin]
[1]
  E1/2 difference of imidazolyl porphyrin vs analogous pyridyl porphyrin: more than 100 mV
[1]; Mn(III)/Mn(II), 0.1 M NaCl, 0.05 M phosphate buffer, pH 7.8, ±3 mV
  Metal-centered redox potential E1/2: +346 mV vs NHE
[1]; difference vs MnTE-2-PyP^5+ (+228 mV vs NHE)
  E1/2 more positive / higher than that of MnTE-2-PyP^5+: 118 mV
[2]
  log kcat for O2^− dismutation: 7.83
[3]; metal-free ligand of the named Mn porphyrin
  Rf (compound path/solvent path), metal-free porphyrin (in parenthesis): 0.23
[3]
  Rf (compound path/solvent path), Mn complex: 0.17
[4]
  degradation within 2 hours: 3%
[5]; M9CA medium, 1 μM
  protection of SOD-deficient E. coli: low protection
[5]; M9CA medium, 3 μM
  protection of SOD-deficient E. coli: ineffective
[5]; M9CA medium, 30 μM
  protection of SOD-deficient E. coli: either much higher or near full protection
[5]; M9CA medium, 1-30 μM
  facilitation of aerobic growth of SOD-deficient E. coli, dependence on concentration: concentration-dependent manner
[5]; ≦3 μM levels (FIG. 10: 5AA minimal medium)
  protection of E. coli from oxidative stress: the least effective
[6]
  neurotoxicity lower than the pyridyl compound (MnTE-2-PyP^5+): 16 fold
[7]
  passing the spinal cord blood barrier compared to MnTE-2-PyP^5+: less effective
  protectiveness in spinal cord injury compared to MnTE-2-PyP^5+: lacks protectiveness

— patent US8183364B2, “Substituted porphyrins” (Duke University, priority 2004, dated 2012)
